Laboratory results published in PubChem BioAssay (NCI).
Where “and” joins values, the source holds several entries; their conditions need not be identical. Identical values can stand only once.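 Tested at 5 concentrations; 48 h exposure; 96-well plates; endpoints linearly interpolated, else capped at highest concentration. At the GI50, growth is halved. Definition used: TGI = concentration required for complete inhibition of growth.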

Tests used:
Test in all cases: growth of human tumour cells (NCI), 48 h
COLO 205 colon = test system: COLO 205 colon
A549 NSCLC = test system: A549 NSCLC
RPMI-8226 leukemia = test system: RPMI-8226 leukemia
SNB-75 CNS = test system: SNB-75 CNS
NCI-H23 lung = test system: NCI-H23 lung
786-0 renal = test system: 786-0 renal
HOP-62 NSCLC = test system: HOP-62 NSCLC
KM12 colon = test system: KM12 colon
SF-539 CNS = test system: SF-539 CNS
OVCAR-5 ovarian = test system: OVCAR-5 ovarian
T-47D breast = test system: T-47D breast
SN12C renal = test system: SN12C renal
OVCAR-3 ovarian = test system: OVCAR-3 ovarian
RXF 393 renal = test system: RXF 393 renal
HCT-116 colon = test system: HCT-116 colon
OVCAR-4 ovarian = test system: OVCAR-4 ovarian
UACC-257 melanoma = test system: UACC-257 melanoma
A498 renal = test system: A498 renal
HS 578T breast = test system: HS 578T breast
NCI-H460 lung = test system: NCI-H460 lung
OVCAR-8 ovarian = test system: OVCAR-8 ovarian
UO-31 renal = test system: UO-31 renal
SF-295 CNS = test system: SF-295 CNS
ACHN renal = test system: ACHN renal
PC-3 prostate = test system: PC-3 prostate
NCI/ADR-RES ovarian = test system: NCI/ADR-RES ovarian
SF-268 CNS = test system: SF-268 CNS
SK-OV-3 ovarian = test system: SK-OV-3 ovarian
M14 melanoma = test system: M14 melanoma
LOX IMVI melanoma = test system: LOX IMVI melanoma
HOP-92 NSCLC = test system: HOP-92 NSCLC
MALME-3M melanoma = test system: MALME-3M melanoma
SR leukemia = test system: SR leukemia
SK-MEL-28 melanoma = test system: SK-MEL-28 melanoma
NCI-H522 lung = test system: NCI-H522 lung
SNB-19 CNS = test system: SNB-19 CNS
HCC-2998 colon = test system: HCC-2998 colon
BT-549 breast = test system: BT-549 breast
TK-10 renal = test system: TK-10 renal
DU-145 prostate = test system: DU-145 prostate
MOLT-4 leukemia = test system: MOLT-4 leukemia
HT29 colon = test system: HT29 colon
NCI-H226 lung = test system: NCI-H226 lung
U251 CNS = test system: U251 CNS
SW-620 colon = test system: SW-620 colon
EKVX NSCLC = test system: EKVX NSCLC
SK-MEL-2 melanoma = test system: SK-MEL-2 melanoma
MDA-MB-231 breast = test system: MDA-MB-231 breast
MDA-MB-435 = test system: MDA-MB-435
K-562 leukemia = test system: K-562 leukemia
UACC-62 melanoma = test system: UACC-62 melanoma
HCT-15 colon = test system: HCT-15 colon
HL-60(TB) leukemia = test system: HL-60(TB) leukemia
CAKI-1 renal = test system: CAKI-1 renal
CCRF-CEM leukemia = test system: CCRF-CEM leukemia
MCF7 breast = test system: MCF7 breast
IGROV1 ovarian = test system: IGROV1 ovarian
SK-MEL-5 melanoma = test system: SK-MEL-5 melanoma

In the case of CO[C@@H](C(=O)N1Cc2[nH]nc(NC(=O)c3ccc(N4CCN(C)CC4)cc3)c2C1)c1ccccc1, the GI50 (COLO 205 colon) is reported as 0.0483 µM and 0.0395 µM, the TGI (COLO 205 colon) is reported as 1.03 µM and 0.625 µM and the GI50 (A549 NSCLC) is reported as 0.419 µM and 0.158 µM. For the same compound, the TGI (A549 NSCLC) was over 69.6 µM, the GI50 (RPMI-8226 leukemia) was 7.04 µM and 5.81 µM and the TGI (RPMI-8226 leukemia) was over 52.5 µM. For the same compound, the GI50 (SNB-75 CNS) was 0.215 µM, the TGI (SNB-75 CNS) was 1.66 µM and the GI50 (NCI-H23 lung) was 0.764 µM and 0.609 µM. For the same compound, the TGI (NCI-H23 lung) was 23.7 µM and > 10 µM, the GI50 (786-0 renal) was 2.55 µM and 2 µM and the TGI (786-0 renal) was 31.4 µM and > 10 µM. The GI50 (HOP-62 NSCLC) was 1.04 µM and 0.585 µM, the TGI (HOP-62 NSCLC) was 19.3 µM and > 10 µM and the GI50 (KM12 colon) was 0.216 µM and 0.125 µM. The TGI (KM12 colon) was 7.09 µM and > 8.18 µM, the GI50 (SF-539 CNS) was 0.459 µM and 0.105 µM and the TGI (SF-539 CNS) was 12 µM and 5.63 µM. The GI50 (OVCAR-5 ovarian) was 1.35 µM and 0.85 µM, the TGI (OVCAR-5 ovarian) was over 68.8 µM and the GI50 (T-47D breast) was 0.792 µM and 0.538 µM. For the same compound, the TGI (T-47D breast) was 69.3 µM and > 10 µM, the TGI (SN12C renal) was over 100 µM and the GI50 (OVCAR-3 ovarian) was 0.866 µM and 1.13 µM. For the same compound, the TGI (OVCAR-3 ovarian) was over 87 µM, the GI50 (RXF 393 renal) was 0.593 µM and 0.312 µM and the TGI (RXF 393 renal) was 3.72 µM and 2.09 µM. The GI50 (HCT-116 colon) was 0.117 µM and 0.0879 µM, the TGI (HCT-116 colon) was 6.67 µM and > 8.71 µM and the GI50 (OVCAR-4 ovarian) was 0.61 µM and 2.82 µM. For the same compound, the TGI (OVCAR-4 ovarian) was over 52.4 µM, the GI50 (UACC-257 melanoma) was 0.613 µM and 1.06 µM and the TGI (UACC-257 melanoma) was 18.9 µM and > 10 µM. The GI50 (A498 renal) was 0.0696 µM and 0.317 µM, the TGI (A498 renal) was 1.32 µM and 3.62 µM and the GI50 (HS 578T breast) was 1.37 µM and 0.232 µM. For the same compound, the TGI (HS 578T breast) was 7.92 µM and 0.859 µM, the GI50 (NCI-H460 lung) was 0.224 µM and 0.0997 µM and the TGI (NCI-H460 lung) was 18 µM and > 10 µM. The GI50 (OVCAR-8 ovarian) was 2.27 µM and 1.84 µM, the TGI (OVCAR-8 ovarian) was over 100 µM and the GI50 (UO-31 renal) was 9.33 µM and 3.67 µM. The TGI (UO-31 renal) was 33.8 µM and > 10 µM, the GI50 (SF-295 CNS) was 0.715 µM and 0.146 µM and the TGI (SF-295 CNS) was over 100 µM. The GI50 (ACHN renal) was 4.97 µM and 6.66 µM, the TGI (ACHN renal) was over 69.6 µM and the GI50 (PC-3 prostate) was 1.53 µM and 2.53 µM. For the same compound, the TGI (PC-3 prostate) was 40.7 µM and > 10 µM, the GI50 (NCI/ADR-RES ovarian) was over 100 µM and the TGI (NCI/ADR-RES ovarian) was over 100 µM. The GI50 (SF-268 CNS) was 1.06 µM and 0.889 µM, the TGI (SF-268 CNS) was 8.08 µM and 4.64 µM and the GI50 (SK-OV-3 ovarian) was 0.591 µM and 0.863 µM. The TGI (SK-OV-3 ovarian) was over 41.2 µM, the GI50 (M14 melanoma) was 3.73 µM and 2.34 µM and the TGI (M14 melanoma) was 23.4 µM and > 10 µM. For the same compound, the GI50 (LOX IMVI melanoma) was 0.255 µM and 0.0825 µM, the TGI (LOX IMVI melanoma) was 2.05 µM and 1.82 µM and the GI50 (HOP-92 NSCLC) was 0.153 µM and 0.0639 µM. The TGI (HOP-92 NSCLC) was 0.731 µM and 1.24 µM, the GI50 (MALME-3M melanoma) was 0.509 µM and 4.41 µM and the TGI (MALME-3M melanoma) was 22.9 µM and > 10 µM. For the same compound, the GI50 (SR leukemia) was 0.0569 µM and 0.0395 µM, the TGI (SR leukemia) was over 35.6 µM and the GI50 (SK-MEL-28 melanoma) was 3.11 µM and 2.72 µM. The TGI (SK-MEL-28 melanoma) was 20.9 µM and > 10 µM, the GI50 (NCI-H522 lung) was 0.469 µM and 0.163 µM and the TGI (NCI-H522 lung) was 45.5 µM and > 10 µM. The GI50 (SNB-19 CNS) was 4.02 µM and 2.93 µM, the TGI (SNB-19 CNS) was over 100 µM and the GI50 (HCC-2998 colon) was 0.525 µM and 0.503 µM. The TGI (HCC-2998 colon) was 46 µM and > 10 µM, the GI50 (BT-549 breast) was 0.809 µM and 1.39 µM and the TGI (BT-549 breast) was 5.9 µM and > 10 µM. For the same compound, the GI50 (TK-10 renal) was 3.28 µM and 2.78 µM, the TGI (TK-10 renal) was 67.2 µM and > 10 µM and the GI50 (DU-145 prostate) was 2.02 µM and 1.93 µM. For the same compound, the TGI (DU-145 prostate) was 17.9 µM and > 10 µM, the GI50 (MOLT-4 leukemia) was 12.6 µM and 2.3 µM and the TGI (MOLT-4 leukemia) was over 81.1 µM. The GI50 (HT29 colon) was 0.713 µM and 0.658 µM, the TGI (HT29 colon) was 2.65 µM and 8.97 µM and the GI50 (NCI-H226 lung) was 0.36 µM and 0.0804 µM. For the same compound, the TGI (NCI-H226 lung) was 49.3 µM and > 8.91 µM, the GI50 (U251 CNS) was 2.16 µM and 1.51 µM and the TGI (U251 CNS) was over 50.1 µM. The GI50 (SW-620 colon) was 0.314 µM and 0.129 µM, the TGI (SW-620 colon) was 22.3 µM and > 10 µM and the GI50 (EKVX NSCLC) was 1.73 µM and 1.89 µM. The TGI (EKVX NSCLC) was 37.6 µM and > 10 µM, the GI50 (SK-MEL-2 melanoma) was 4.33 µM and 6.86 µM and the TGI (SK-MEL-2 melanoma) was 33.1 µM and > 10 µM. For the same compound, the GI50 (MDA-MB-231 breast) was 0.562 µM and 0.142 µM, the TGI (MDA-MB-231 breast) was over 70.5 µM and the GI50 (MDA-MB-435) was 2.69 µM and 3.08 µM. For the same compound, the TGI (MDA-MB-435) was 17.4 µM and > 10 µM, the GI50 (K-562 leukemia) was 0.106 µM and 0.0547 µM and the TGI (K-562 leukemia) was over 100 µM. For the same compound, the GI50 (UACC-62 melanoma) was 0.548 µM and 0.482 µM, the TGI (UACC-62 melanoma) was 50.5 µM and > 10 µM and the GI50 (HCT-15 colon) was 18.8 µM and > 10 µM. For the same compound, the TGI (HCT-15 colon) was over 100 µM, the GI50 (HL-60(TB) leukemia) was 3.25 µM and 4.35 µM and the TGI (HL-60(TB) leukemia) was 28.3 µM and > 10 µM. For the same compound, the GI50 (CAKI-1 renal) was 19.6 µM and > 10 µM, the TGI (CAKI-1 renal) was over 91.4 µM and the TGI (CCRF-CEM leukemia) was over 100 µM. The GI50 (MCF7 breast) was 0.104 µM and 0.0736 µM, the TGI (MCF7 breast) was 23.1 µM and > 10 µM and the GI50 (IGROV1 ovarian) was 0.282 µM and 0.0624 µM. For the same compound, the TGI (IGROV1 ovarian) was 3.01 µM and 2.95 µM, the GI50 (SK-MEL-5 melanoma) was 1.65 µM and 2.76 µM and the TGI (SK-MEL-5 melanoma) was 12.1 µM and > 10 µM.
